We go through five molecules from US5804553A, “Prophenins - antibiotic peptides” (University of California, priority 1994, dated 1998).

Where no end group is shown, it is not given here.

In assay [1] the test system is C. albicans, strain 820. Description: radial diffusion assay in agarose gels. The assay is classed as cell-based. As to conditions: for inhibitory activity (FIG. 4c): at reasonable concentrations; for minimal microbicidal concentration: Table 2. As to the method:
(§1) Aliquots (66 μl) of each fraction were dried by vacuum centrifugation, and resuspended in approximately 6.6 μl of 0.01% acetic acid. Five μl samples of this concentrate were tested for antimicrobial activity against E. coli ML-35, L. monocytogenes, Strain EGD and C. albicans, strain 820 by radial diffusion and gel overlay techniques (Lehrer, R. I. et al. J Immunol Meth (1991) 137:167-173). Active fractions were further examined by acid-urea PAGE and SDS-PAGE. Prophenins emerged from the P10 column in fractions 38-43 (39.6 ml total volume), which contained a total of 18 mg protein by BCA analysis.
(§2) The radial diffusion assay in agarose gels as described above was also used to test the activity of the purified prophenins. Samples of 5 μL each were added to 3 mm wells in thin gels composed of 10 mM sodium phosphate, 30 mg/ml trypticase soy broth powder in 1% agarose and containing approximately 4×10^5 CFU/ml of mid-log phase organisms. After allowing 3 hours for the samples to diffuse into the underlayer gel, a nutrient-rich overlay gel was poured and the plates were incubated for 24 hours at 37° C. to allow surviving organisms to form microcolonies. The diameters of the clear zones were measured and expressed in "units" (10 units=1 mm) as. described previously.

Assay [2] relates to E. coli ML-35. Description: radial diffusion assay in agarose gels. As to conditions: for minimal microbicidal concentration: E. coli, Table 2; for inhibitory activity (FIG. 4a): E. coli ML-35. The assay is classed as cell-based. The protocol: as §1, §2
In assay [3] the test system is L. monocytogenes, Strain EGD. Put plainly: radial diffusion assay in agarose gels. The settings on record: for minimal microbicidal concentration: Table 2. The assay is classed as cell-based. As to the method: as §1, §2
Assay [4] relates to lipid polysaccharide (LPS) of the Gram-negative bacterium E. coli strain 0.55B5. Put plainly: Limulus amebocyte lysate (LAL) test for endotoxin binding. It counts as biochemical. On the set-up: key to LAL gel formation: ++ signifies a solid gel (no inhibition); + indicates increased viscosity without solid gel formation (partial inhibition); 0 indicates that gelation was absent (complete inhibition). The settings on record: for concentration giving complete inhibition of LAL gelation / LAL gel formation: LPS 0.05 endotoxin unit/ml; for LAL gel formation: Table 3; for concentration giving complete inhibition of LAL gelation, molar: converted from μg/ml. The protocol:
The prophenins of the invention were tested for their ability to bind the lipid polysaccharide (LPS) of the Gram-negative bacterium E. coli strain 0.55B5. The assay was the Limulus amebocyte lysate (LAL) test for endotoxins conducted in the presence and absence of the test compounds. The test was conducted using the procedure described in Sigma Technical Bulletin No. 210 as revised in December 1992 and published by Sigma Chemical Company, St. Louis, Mo.
The LAL test is based on the ability of LPS to effect gelation in the commercial reagent E-TOXATE ™ which is prepared from the lysate of circulating amebocytes of the Horseshoe Crab Limulus polyphemus. As described in the technical bulletin, when exposed to minute quantities of LPS, the lysate increases in opacity as well as viscosity and may gel or clot depending on the concentration of endotoxin. The technical bulletin goes on to speculate that the mechanism appears analogous to the clotting of mammalian blood and involves the steps of activation of a trypsin-like preclotting enzymes by the LPS in the presence of calcium ion, followed by enzymic modifications of a "coagulogen" by proteolysis to produce a clottable protein. These steps are believed tied to the biologically active or "pyrogenic" portion of the molecule. It has been shown previously that detoxified LPS (or endotoxin) gives a negative LAL test.
Polymyxin B is a cyclic 1.2 kD acylated […] obtained from Bacillus polymyxa. Polymyxin B was used as a positive control since it is known to inhibit LPS-induced Limulus hemocyte lysate clotting.
In the assay, the amounts of prophenin-1 and polymyxin B (78% free polymyxin, Sigma) were preincubated in a final volume of 0.2 ml and the test mixtures contained LPS at a final concentration of 0.05 endotoxin unit/ml and E-TOXATE™ at the same concentration. The test compounds were incubated together with the LPS for 15 minutes before the E-TOXATE™ was added to a final volume (after E-TOXATE™ addition) of 0.2 ml. The tubes were then incubated for 60 minutes at 37° C. and examined for the formation of a gel.

Regarding “HNP-1: human defensin (HNP-1), used as control”, in assay [1], the “inhibitory activity (FIG. 4c)” value is “substantially noninhibitory”.
For “HNP-2: control peptide as headed in Table 2; the text names human defensin HNP-1 (CYCRIPACIAGERRYGTCIYQGRLWAFCC; ends and bridges not checked; cysteine pairing not given here; UniProt P59665 66-94, looked up)”, the minimal microbicidal concentration in assay [1] is > 150 µg/mL; in assay [2], 80.0 µg/mL; in assay [3] it was 12.0 µg/mL.
Regarding “PG-3: protegrin-3 (PG3), used as control (RGGGLCYCRRRFCVCVGR; ends and bridges not checked; cysteine pairing not given here; UniProt P32196 131-148, looked up)”, the minimal microbicidal concentration is 6.9 µg/mL in assay [1], 8.6 µg/mL in assay [2] and 9.0 µg/mL in assay [3]. Besides, the “inhibitory activity (FIG. 4c)” value in assay [1] is listed as “successful antifungals”. Moreover, the “inhibitory activity (FIG. 4a)” value in assay [2] was “more inhibitory than HNP-1”.
With Polymyxin B, the “concentration giving complete inhibition of LAL gelation” value in assay [4] worked out at 5 µg/mL. The LAL gel formation entry in assay [4] (peptide 0.16 μg/ml) is on record as “++”; in assay [4] (peptide 0.31 μg/ml) it was “++”; in assay [4] (peptide 0.63 μg/ml) it was “++”; in assay [4] (peptide 1.25 μg/ml), “++”; in assay [4] (peptide 2.5 μg/ml) it was “+”; in assay [4] (peptide 5.0 μg/ml), 0. In addition, the LAL gel formation in assay [4] (peptide 10.0 μg/ml) is 0. In addition, in assay [4], the “concentration giving complete inhibition of LAL gelation, molar” value is “≈ 4.2 μM”.

B1: Prophenin-1: 79-residue proline-rich antimicrobial peptide purified from porcine leukocytes; sequence SEQ ID NO:1 (b87-b94, FIG. 3) (peptide)
chain: AFPPPNVPGPRFPPPNFPGPRFPPPNFPGPRFPPPNFPGPRFPPPNFPGPPFPPPIFPGPWFPPPPPFRPPPFGPPRFP
For the molecule B1, in assay [4], the “concentration giving complete inhibition of LAL gelation” value was found to be 0.625 µg/mL. Also, the LAL gel formation result is given as “++” in assay [4] (peptide 0.16 μg/ml); “++” in assay [4] (peptide 0.31 μg/ml); 0 in assay [4] (peptide 0.63 μg/ml); 0 in assay [4] (peptide 1.25 μg/ml); 0 in assay [4] (peptide 2.5 μg/ml); 0 in assay [4] (peptide 5.0 μg/ml). For the same molecule, the “concentration giving complete inhibition of LAL gelation, molar” value in assay [4] is “≈ 72 nM”. Besides, in assay [4] (intact molecule), the “effective concentration in inhibiting LPS” value was in the range of 35 to 70 nM. For the same molecule, the minimal microbicidal concentration in assay [1] is > 150 µg/mL; in assay [2] it was 15.2 µg/mL; in assay [3], 122.2 µg/mL. For the same molecule, the “inhibitory activity (FIG. 4c)” value in assay [1] is given as “substantially noninhibitory”. Also, in assay [2], the “inhibitory activity (FIG. 4a)” value is “comparable in inhibitory activity to PG3 and NP1”. Moreover, in assay [2] (from Table 2, E. coli versus L. monocytogenes and C. albicans), the “specificity for Gram-negative bacteria” value was “highly specific for Gram-negative bacteria”. Moreover, the “concentrations at which some activity was shown (FIG. 4b)” value in assay [3] is on record as “above 100 μg/ml”. Also, the “inhibitory activity (FIG. 4b)” value in assay [3] (versus the other three antibiotic peptides) is reported as “substantially less inhibitory”.
